Measurements published in PubChem BioAssay (NCI).
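Tested at 5 concentrations; 48 h exposure; 96-well plates; endpoints linearly interpolated, else capped at highest concentration. GI50 is the concentration that inhibits growth by half. TGI denotes the concentration required for complete inhibition of growth.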

Legend:
Test in all cases: DTP human tumour cell line panel, 48 h
UO-31 renal = tested on: UO-31 renal
SK-MEL-2 melanoma = tested on: SK-MEL-2 melanoma
RPMI-8226 leukemia = tested on: RPMI-8226 leukemia
M14 melanoma = tested on: M14 melanoma
K-562 leukemia = tested on: K-562 leukemia
U251 CNS = tested on: U251 CNS
COLO 205 colon = tested on: COLO 205 colon
PC-3 prostate = tested on: PC-3 prostate
BT-549 breast = tested on: BT-549 breast
NCI/ADR-RES ovarian = tested on: NCI/ADR-RES ovarian

SMILES | TGI (UO-31 renal) [µM] | TGI (SK-MEL-2 melanoma) [µM] | TGI (RPMI-8226 leukemia) [µM] | TGI (M14 melanoma) [µM] | TGI (K-562 leukemia) [µM] | TGI (U251 CNS) [µM] | TGI (COLO 205 colon) [µM] | TGI (PC-3 prostate) [µM] | TGI (BT-549 breast) [µM] | TGI (NCI/ADR-RES ovarian) [µM] | GI50 (UO-31 renal) [µM] | GI50 (SK-MEL-2 melanoma) [µM] | GI50 (PC-3 prostate) [µM] | GI50 (RPMI-8226 leukemia) [µM] | GI50 (BT-549 breast) [µM] | GI50 (M14 melanoma) [µM] | GI50 (K-562 leukemia) [µM] | GI50 (U251 CNS) [µM] | GI50 (COLO 205 colon) [µM] | GI50 (NCI/ADR-RES ovarian) [µM]
Cc1[nH]c2cc([N+](=O)[O-])ccc2c1[N+](=O)[O-] | 36.2 | 31 | 58.4 | 44 | > 100 | 71.2 | 33 | – | – | – | – | – | – | – | – | – | – | – | – | –
CN1CCN(c2nc(N)c(Br)c(Cl)n2)CC1 | > 100 | > 100 | > 100 | > 100 | > 100 | – | > 100 | – | – | – | – | – | – | – | – | – | – | – | – | –
O=C(CCc1ccccc1)CC1OC(=O)C(Cl)=C1Cl (centres undefined) | 34 | 36.1 | > 100 | 31 | 88 | 30.4 | 30.9 | – | – | – | – | – | – | – | – | – | – | – | – | –
CC(=O)Nc1ccc(/C=c2\sc3nnc(-c4cccnc4)n3c2=O)cc1 | 24.7 | 46.4 | – | 39.2 | 70.1 | 33.5 | 29.8 | – | – | – | – | – | – | – | – | – | – | – | – | –
CSc1nc(SC)c2c(C)cn(COCCOC(=O)c3ccccc3)c2n1 | > 100 | > 100 | > 100 | > 100 | – | > 100 | > 100 | > 100 | > 100 | > 100 | – | – | – | – | – | – | – | – | – | –
CC1=C(C(=O)Nc2ccc(Cl)c(Cl)c2)C(c2cccc(Cl)c2)NC(=S)N1 (centres undefined) | 24.9 | 27.1 | > 50 | 20.2 | > 50 | 29.6 | > 50 | > 50 | 38.6 | – | 11.1 | 14.5 | 14.1 | 23 | 16.4 | 9.75 | 19.7 | 10.7 | 17.4 | –
Cn1c(I)c(C#C[Si](C)(C)C)c(=O)[nH]c1=O | 32.4 | 28.3 | 4.28 | – | 4.08 | 25.5 | 3.69 | – | 9.21 | 42.8 | 16.8 | 14.4 | – | 1.64 | 3 | – | 1.68 | 12.8 | 1.87 | 20.7
Cc1ccc(S(=O)(=O)C2CC2(Cl)Cl)cc1 (centres undefined) | > 100 | > 100 | – | 29.2 | > 100 | > 100 | 41.9 | – | – | – | – | – | – | – | – | – | – | – | – | –
CCc1c(C)c2cc(-n3c(-c4ccc(OC)cc4)csc3=N)c(O)c(C)c2oc1=O | 3.65 | 5.84 | – | 6.59 | – | 6.09 | 4.88 | > 100 | 5.02 | 10.6 | 0.687 | 1.66 | 0.752 | – | 1 | 1.41 | – | 1.77 | 1.94 | 1.62
COc1ccc(/C=C/c2ccnc3ccccc23)cc1OC | 0.478 | 39 | 57.1 | 34.9 | 22.1 | > 100 | 27.1 | 36.4 | – | 40 | – | – | – | – | – | – | – | – | – | –
CC(=O)CC(=O)Nc1ccccc1C(F)(F)F | > 100 | > 100 | > 100 | > 100 | > 100 | > 100 | > 100 | – | – | – | – | – | – | – | – | – | – | – | – | –
COc1ccc2c(c1)[n+]([O-])c(-c1ccccc1Cl)c(N)[n+]2[O-] | > 100 | > 100 | > 100 | > 100 | > 100 | > 100 | 32.6 | – | – | – | – | – | – | – | – | – | – | – | – | –
O=C(N/C(=C\c1ccc(/C=C(\NC(=O)c2ccccc2)c2nc3c(O)nc(S)nc3[nH]2)cc1)c1nc2c(O)nc(S)nc2[nH]1)c1ccccc1 | > 100 | > 100 | > 100 | > 100 | > 100 | > 100 | > 100 | – | – | – | – | – | – | – | – | – | – | – | – | –
COc1ccc2nc3ccccc3c(NCCCCN(CCCl)CCCl)c2c1 | 2.29 | 2.06 | 0.943 | – | – | 1.83 | – | 7.56 | – | 5.4 | – | – | – | – | – | – | – | – | – | –
NC(=O)c1ncn(C2OC(CO)C(O)C2O)c1O (centres undefined) | > 100 | > 100 | > 100 | > 100 | > 100 | > 100 | – | – | – | – | – | – | – | – | – | – | – | – | – | –
N#Cc1ccc(C2SCc3nc4ccccc4n32)cc1 (centres undefined) | 73.6 | > 100 | > 100 | > 100 | > 100 | > 100 | > 100 | – | – | – | – | – | – | – | – | – | – | – | – | –
CSc1nnc(C(C#N)C#N)nn1 | > 100 | – | > 100 | > 100 | > 100 | > 100 | > 100 | – | – | – | – | – | – | – | – | – | – | – | – | –
CC1=C2C=CC(=O)C[C@@]2(C)CCC1 | > 100 | > 100 | > 100 | > 100 | > 100 | > 100 | > 100 | – | – | – | – | – | – | – | – | – | – | – | – | –
Cc1ccc(Nc2nc(-c3ccc(-c4ccc([N+](=O)[O-])cc4)o3)cs2)cc1 | > 100 | > 100 | > 100 | > 100 | > 100 | > 100 | > 100 | – | – | – | – | – | – | – | – | – | – | – | – | –
COC(=O)[C@@]12C3=NO[C@]1(C(=O)OC)C(O[Si](C)(C)C(C)(C)C)[C@@H](OC(C)=O)[C@@H](OC(C)=O)[C@@H]2[C@@H](OCc1ccccc1)CC3 (some centres undefined) | > 100 | > 100 | > 100 | > 100 | > 100 | > 100 | > 100 | – | – | – | – | – | – | – | – | – | – | – | – | –
O=C1/C(=C/c2ccc(C(F)(F)F)cc2)COc2ccc(O)c(O)c21 | 1.95 | 3.99 | 0.607 | 4.04 | > 100 | 2.05 | 3.06 | – | 3.58 | 6.59 | 0.633 | 1.83 | – | 0.238 | 1.86 | 1.78 | 0.289 | 0.703 | 1.58 | 1.8
CCOCCOCCOCCOCCOCCOCCOCCOCCOCCO (tested in a mixture with another compound) | 18.7 | 3.81 | – | 7.08 | – | 4.47 | 4.23 | 6.5 | 4.75 | > 32.5 | 1.58 | 1.2 | 1.01 | – | 1.29 | 2.02 | – | 0.987 | 1.28 | 3.96
Cc1ccc(S(=O)(=O)NNS(C)(=O)=O)cc1 | > 100 | > 100 | > 100 | > 100 | > 100 | > 100 | > 100 | – | – | – | – | – | – | – | – | – | – | – | – | –
CCN(CC)C(=S)SS(C)(=O)=O | 37.3 | 33.2 | – | 32.1 | 47.8 | 31.5 | 29.7 | – | – | – | – | – | – | – | – | – | – | – | – | –
